Laboratory results: patent US7550425B2, “Diuretic peptide conjugates” (Zealand Pharma A/S, priority 2000, dated 2009)
Read-outs that look alike come from different tables or passages of the source.

Assays:
[1] = system: conscious Sprague Dawley rats; format: in vivo, rat; on Behavioral changes: key: 0 indicates a lack of response; (↓) indicates a very weak decrease; ↓ indicates a weak decrease; ↑ indicates a weak increase; ↑↑ indicates a strong increase; on Food intake: key: 0 indicates a lack of response; (↓) indicates a very weak decrease; ↓ indicates a weak decrease; ↑ indicates a weak increase; ↑↑ indicates a strong increase; on UNaV: key: 0 indicates a lack of response; (↓) indicates a very weak decrease; ↓ indicates a weak decrease; ↑ indicates a weak increase; ↑↑ indicates a strong increase
Method: In the conscious rat model, the animal is chronically instrumented with catheters in the urinary bladder, the femoral artery, and the femoral vein. The animal receives a continuous i.v. infusion with isotonic saline, 50 μl/min. Urine is collected in vials in consequtive urine collection periods of 10 min each. After two control periods, the test compound is administered and fractionated urine collections (10 min periods) are continued for at least two hours. Urinary concentrations of sodium and potassium are determined by flame photometry (Instrumentation Laboratory 943) using caesium as internal standard.
The diuretic effect of the peptide conjugates of the invention has been tested in conscious rats, where Compound 1 elicits a powerful and sustained diuretic response. Cardiovascular and renal responses produced by i.v. infusion of nociceptin (Phoenix Pharmaceuticals) and Compound 1 have been studied in conscious Sprague Dawley rats. The results are shown in FIGS. 2 to 8 wherein HR is heart rate, MAP is mean arterial pressure, V is urine flow rate, UNaV is urinary excretion rate of sodium, RSNA is renal sympathetic nerve activity expressed as % of the control level, Cosm is the osmolar clearance, and CH2O is free water clearance.
Furthermore, the effects of i.v. bolus administration of nociceptin (30 and 100 nmol/kg, Phoenix Pharmaceuticals) and nociceptin-NH2 (30 nmol/kg) on heart rate, arterial pressure and RSNA were studied in groups of 6 conscious Sprague-Dawley rats.
[…] After stabilization of urine flow rate and urinary sodium excretion, urine was collected during a 20-min control period. After this, the i.v. bolus injection was given or the i.v. infusate was switched to a solution of isotonic saline containing Compound 1 (i.v. infusion experiments). From the time of drug administration, experimental urine samples (10-min consecutive periods) were taken for 80 min.
One hour prior to the start of each experiment a food pellet (standard rodent chow) was placed within access to the rat though a hole in the rat holder. The number and time of feeding responses (i.e., times in which the rat began to eat the food pellet) was recorded before, and after drug administration. If a positive feeding response was observed, the pellet was removed from the restrainer to prevent feeding-induced alterations in heart rate and/or mean arterial pressure. At 10-min intervals, the food pellet was presented to the rat to determine the duration of the feeding response.

[2] = In vitro stability in heparin stabilised mouse plasma; format: in vitro ADME; settings: heparinised mouse plasma, 37° C., read-out: half-life t½ of degradation
Method: Degradation of peptides is almost exclusively seen in the presence of enzymes, e.g. in the bloodstream. An important feature of a putative drug is whether it is quickly degraded in vivo or whether it is able to conduct its effects over a longer period of time. To be able to examine the stability of the peptide conjugates of the present invention degradation was tested in heparin stabilised mouse plasma (obtained from Harlan Seralab, UK).
The stability studies were run in triplicate. 100 μL of a 1 mg/mL solution of the test compound (peptide conjugate) was added to an Eppendorf tube, containing 900 μL plasma, incubated at 37° C. Immediately after addition, a sample of 100 μL was removed and added to an Eppendorf tube, containing 10 μL of extraction solution (50% TFA (trifluoroacetic acid) in MeCN, v/v). This sample constitutes t=0. […] The samples are centrifuged at 20,000×g, and the supernatant was transferred to vials and analysed by high-performance liquid chromatography (HPLC).
The analysis was performed on a HP1100 HPLC with a quaternary pump. The column used was a Vydac 201SP5215, and the apparatus comprises an autosampler, a column oven, a variable UV detector and a fluorescence detector. […] These values were transferred to Microsoft Excel, where half-lives (t½) and rate constant (kobs) for Ac-RYYRWK-NH2 (SEQ ID NO: 1) and Compound 1 were determined by fitting to the equation.

[3] = I.v. bolus injection 30 nmol/kg
[4] = I.v. infusion 0.1 nmol/kg/min (n = 6)
[5] = I.v. infusion 1.0 nmol/kg/min (n = 6)
[6] = I.v. infusion 10 nmol/kg/min (n = 6)
[7] = i.v. infusion 1 and 0.1 nmol/kg/min, FIG. 3

## Ac-RYYRWKKKKKKK-NH2 [Compound 1, Ac-RYYRWKKKKKKK-NH2]
[1]; I.v. bolus 10 nmol/kg (n = 6)
  Δ Blood Pressure (%): −4 ± 1%
  Δ K excretion (%): −35 ± 4%
  Δ Na excretion (%): −44 ± 3%
  Δ Urine Flow (%): +83 ± 42%
[1]; I.v. bolus 30 nmol/kg (n = 4)
  Δ Blood Pressure (%): −8 ± 2%
  Δ K excretion (%): −20 ± 7%
  Δ Na excretion (%): −51 ± 7%
  Δ Urine Flow (%): +207 ± 11%
[1]; I.v. bolus 100 nmol/kg (n = 6)
  Δ Blood Pressure (%): −12 ± 2%
  Δ K excretion (%): −52 ± 5%
  Δ Na excretion (%): −70 ± 2%
  Δ Urine Flow (%): +249 ± 60%
[1]; I.v. bolus 300 nmol/kg (n = 4)
  Δ Blood Pressure (%): −15 ± 3%
  Δ K excretion (%): −79 ± 6%
  Δ Na excretion (%): −85 ± 6%
  Δ Urine Flow (%): +127 ± 47%
[1]; [3]
  Behavioral changes: 0
  Food intake: 0
  HR: 0
  MAP: 0
[1]; I.v. infusion 0.1 nmol/kg/min
  Behavioral changes: 0
  Food intake: 0
  HR: 0
  UNaV: 0
[1]; [4]
  Δ Blood Pressure (%): −5 ± 4%
  Δ K excretion (%): −16 ± 6%
  Δ Na excretion (%): −5 ± 3%
  Δ Urine Flow (%): +99 ± 21%
[1]; I.v. infusion 1.0 nmol/kg/min
  Behavioral changes: 0
  Food intake: 0
  HR: 0
[1]; [5]
  Δ Blood Pressure (%): −10 ± 2%
  Δ K excretion (%): −51 ± 9%
  Δ Na excretion (%): −64 ± 7%
  Δ Urine Flow (%): 210 ± 51%
[1]; [6]
  Δ Blood Pressure (%): −15 ± 3%
  Δ K excretion (%): −68 ± 15%
  Δ Na excretion (%): −79 ± 6%
  Δ Urine Flow (%): 160 ± 68%
[1]; after 120 min of i.v. infusion 1 nmol/kg/min, n=6
  bradycardia and hypotension to an i.v. bolus injection of nociceptin: completely blocked
[1]; continuous i.v. infusion 1 and 10 nmol/kg/min
  water diuretic response: selective water diuretic response
[1]; i.v. bolus 30 nmol/kg
  heart rate, arterial pressure and RSNA: did not produce any changes in heart rate, blood pressure or RSNA
  stimulation of appetite or behavioral changes: do not show any signs of stimulation of appetite or behavioral changes
[1]; i.v. bolus 30 nmol/kg, data not shown
  diuretic (V) and antinatriuretic (UNaV) response: marked diuretic (V) and antinatriuretic (UNaV) response
[1]; i.v. infusion 1 and 0.1 nmol/kg/min
  appetite, sedation, behavioral changes: no signs of increased appetite, sedation, or behavioral changes
[1]; [7]
  HR response: little effect on HR
  MAP response: slight, but significant reduction in MAP
  diuretic (V) and antinatriuretic (UNaV) responses: significant diuretic (V μl/min) and antinatriuretic responses
[1]; i.v. infusion, FIGS. 5 and 6
  fold more potent than nociceptin in producing similar magnitude diuretic and antinatriuretic responses: approximately 10 fold
[1]; i.v. infusion, compared with nociceptin
  duration of the diuretic effect: tended to persist for a greater duration than that of i.v. nociceptin infusion
[2]
  half-life at 0.1 mg/mL: 5.97 h
